In PubChem BioAssay AID2060887 (Molecular Pharmacology Branch, DTP, NCI, 2025):

Test system: 782815-120-R-J1-PDC complex spheroid viability
Test: Anticancer human tumor 782815-120-R-J1-PDC patient-derived colon adenocarcinoma cell line growth inhibition [RAS]
Conditions: for viability, T/C: stronger effect = lower value; active = viability on the fitted dose curve at most 10% of control; inactive = the rest
Method in brief: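 Multi-cell-type spheroids: tumor cells plus HUVEC endothelial cells and mesenchymal stem cells. RAS-pathway inhibitors were combined with targeted agents, each dosed in half-log steps down from clinical Cmax, or from 10 microM when Cmax was unknown.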

[1] = curve of first compound, second compound 0.000949 µM
[2] = curve of first compound, second compound 0.003 µM
[3] = curve of first compound, second compound 0.00949 µM
[4] = curve of first compound, second compound 0.03 µM
[5] = curve of first compound, second compound 0.0949 µM
[6] = curve of first compound, second compound 0.3 µM
[7] = second compound 0.000949 µM, first compound 0.0316 µM
[8] = second compound 0.000949 µM, first compound 0.1 µM
[9] = second compound 0.000949 µM, first compound 0.316 µM
[10] = second compound 0.000949 µM, first compound 1 µM
[11] = second compound 0.003 µM, first compound 0.0316 µM
[12] = second compound 0.003 µM, first compound 0.1 µM
[13] = second compound 0.003 µM, first compound 0.316 µM
[14] = second compound 0.003 µM, first compound 1 µM
[15] = second compound 0.00949 µM, first compound 0.0316 µM
[16] = second compound 0.00949 µM, first compound 0.1 µM
[17] = second compound 0.00949 µM, first compound 0.316 µM
[18] = second compound 0.00949 µM, first compound 1 µM
[19] = second compound 0.03 µM, first compound 0.0316 µM
[20] = second compound 0.03 µM, first compound 0.1 µM
[21] = second compound 0.03 µM, first compound 0.316 µM
[22] = second compound 0.03 µM, first compound 1 µM
[23] = second compound 0.0949 µM, first compound 0.0316 µM
[24] = second compound 0.0949 µM, first compound 0.1 µM
[25] = second compound 0.0949 µM, first compound 0.316 µM
[26] = second compound 0.0949 µM, first compound 1 µM
[27] = second compound 0.3 µM, first compound 0.0316 µM
[28] = second compound 0.3 µM, first compound 0.1 µM
[29] = second compound 0.3 µM, first compound 0.316 µM
[30] = second compound 0.3 µM, first compound 1 µM
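Note: spheroids exposed to compounds for 7 days before reading.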
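Throughout, for viability, T/C: 100% = DMSO vehicle control viability.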

C=CC(=O)Nc1cc(Nc2nccc(-c3cn(C)c4ccccc34)n2)c(OC)cc1N(C)CCN(C)C + CCn1c(-c2cccnc2C(C)OC)c2c3cc(ccc31)N1CCOC(CC(NC(=O)C(C(C)C)N(C)C(=O)C3(F)CCN(C(=O)C#CC(C)(C)N(C)C)CC3)C(=O)N3CCCC(N3)C(=O)OCC(C)(C)C2)C1
> 1000 nM: IC50 [1] | IC50 [2] | IC50 [3] | IC50 [4] | IC50 [5] | IC50 [6]
inactive: viability, T/C (second compound 0.000949 µM, first compound 0.00316 µM) 102% | viability, T/C (second compound 0.000949 µM, first compound 0.01 µM) 97.7% | viability, T/C [7] 99.6% | viability, T/C [8] 103% | viability, T/C [9] 87.2% | viability, T/C [10] 84% | viability, T/C (second compound 0.003 µM, first compound 0.00316 µM) 102% | viability, T/C (second compound 0.003 µM, first compound 0.01 µM) 91.1% | viability, T/C [11] 90.9% | viability, T/C [12] 91.9% | viability, T/C [13] 93.8% | viability, T/C [14] 83.2% | viability, T/C (second compound 0.00949 µM, first compound 0.00316 µM) 96.9% | viability, T/C (second compound 0.00949 µM, first compound 0.01 µM) 92.8% | viability, T/C [15] 94.2% | viability, T/C [16] 96.5% | viability, T/C [17] 100% | viability, T/C [18] 84.3% | viability, T/C (second compound 0.03 µM, first compound 0.00316 µM) 86.4% | viability, T/C (second compound 0.03 µM, first compound 0.01 µM) 92.8% | viability, T/C [19] 96.3% | viability, T/C [20] 86.4% | viability, T/C [21] 93% | viability, T/C [22] 86.1% | viability, T/C (second compound 0.0949 µM, first compound 0.00316 µM) 94.2% | viability, T/C (second compound 0.0949 µM, first compound 0.01 µM) 94.8% | viability, T/C [23] 85.3% | viability, T/C [24] 97.3% | viability, T/C [25] 106% | viability, T/C [26] 86.4% | viability, T/C (second compound 0.3 µM, first compound 0.00316 µM) 85.1% | viability, T/C (second compound 0.3 µM, first compound 0.01 µM) 88% | viability, T/C [27] 96.7% | viability, T/C [28] 88.7% | viability, T/C [29] 97% | viability, T/C [30] 73.8%

CCc1c2c(nc3ccc(O)cc13)-c1cc3c(c(=O)n1C2)COC(=O)[C@]3(O)CC + CCn1c(-c2cc(N3CCN(C)CC3)cnc2C(C)OC)c2c3cc(ccc31)-c1csc(n1)CC(NC(=O)C1CC1C)C(=O)N1CCCC(N1)C(=O)OCC(C)(C)C2
active: viability, T/C (second compound 0.000949 µM, first compound 0.03 µM) 10.8% | viability, T/C (second compound 0.000949 µM, first compound 0.0949 µM) 3.9% | viability, T/C (second compound 0.000949 µM, first compound 0.3 µM) 1.57% | viability, T/C (second compound 0.003 µM, first compound 0.0949 µM) 4.38% | viability, T/C (second compound 0.003 µM, first compound 0.3 µM) 1.89% | viability, T/C (second compound 0.00949 µM, first compound 0.0949 µM) 7.05% | viability, T/C (second compound 0.00949 µM, first compound 0.3 µM) 1.84% | viability, T/C (second compound 0.03 µM, first compound 0.03 µM) 10.4% | viability, T/C (second compound 0.03 µM, first compound 0.0949 µM) 6.53% | viability, T/C (second compound 0.03 µM, first compound 0.3 µM) 1.73% | viability, T/C (second compound 0.0949 µM, first compound 0.03 µM) 10.5% | viability, T/C (second compound 0.0949 µM, first compound 0.0949 µM) 7.5% | viability, T/C (second compound 0.0949 µM, first compound 0.3 µM) 0.75% | viability, T/C (second compound 0.3 µM, first compound 0.03 µM) 13.1% | viability, T/C (second compound 0.3 µM, first compound 0.0949 µM) 7.92% | viability, T/C (second compound 0.3 µM, first compound 0.3 µM) 1.5%
inactive: viability, T/C (second compound 0.000949 µM, first compound 0.000949 µM) 70.4% | viability, T/C (second compound 0.000949 µM, first compound 0.003 µM) 45.9% | viability, T/C (second compound 0.000949 µM, first compound 0.00949 µM) 19.8% | viability, T/C (second compound 0.003 µM, first compound 0.000949 µM) 66.6% | viability, T/C (second compound 0.003 µM, first compound 0.003 µM) 38.8% | viability, T/C (second compound 0.003 µM, first compound 0.00949 µM) 23.4% | viability, T/C (second compound 0.003 µM, first compound 0.03 µM) 12.9% | viability, T/C (second compound 0.00949 µM, first compound 0.000949 µM) 32.7% | viability, T/C (second compound 0.00949 µM, first compound 0.003 µM) 28.5% | viability, T/C (second compound 0.00949 µM, first compound 0.00949 µM) 15.4% | viability, T/C (second compound 0.00949 µM, first compound 0.03 µM) 12.7% | viability, T/C (second compound 0.03 µM, first compound 0.000949 µM) 19.6% | viability, T/C (second compound 0.03 µM, first compound 0.003 µM) 16.7% | viability, T/C (second compound 0.03 µM, first compound 0.00949 µM) 11.7% | viability, T/C (second compound 0.0949 µM, first compound 0.000949 µM) 15.5% | viability, T/C (second compound 0.0949 µM, first compound 0.003 µM) 16.3% | viability, T/C (second compound 0.0949 µM, first compound 0.00949 µM) 11.7% | viability, T/C (second compound 0.3 µM, first compound 0.000949 µM) 14.3% | viability, T/C (second compound 0.3 µM, first compound 0.003 µM) 13.6% | viability, T/C (second compound 0.3 µM, first compound 0.00949 µM) 10.7%
2.4 nM: IC50 [1]
< 0.949 nM: IC50 [3] | IC50 [4] | IC50 [5] | IC50 [6]
1.92 nM: IC50 [2]

CCc1c2c(nc3ccc(O)cc13)-c1cc3c(c(=O)n1C2)COC(=O)[C@]3(O)CC
inactive: viability, T/C (compound 0.000949 µM) 100% [middle of 4 runs] | viability, T/C (compound 0.003 µM) 59.1% [middle of 4 runs] | viability, T/C (compound 0.00949 µM) 20.2% [middle of 4 runs]
active: viability, T/C (compound 0.03 µM) 9.92% [middle of 4 runs] | viability, T/C (compound 0.0949 µM) 3.66% [middle of 4 runs] | viability, T/C (compound 0.3 µM) 1.71% [middle of 4 runs]
4.02 nM [middle of 4 runs]: IC50 (curve of compound)

C[C@@H](NC(=O)c1ncnc(N)c1Cl)c1ncc(C(=O)Nc2cc(C(F)(F)F)c(Cl)cn2)s1 + CCn1c(-c2cccnc2C(C)OC)c2c3cc(ccc31)N1CCOC(CC(NC(=O)C(C(C)C)N(C)C(=O)C3(F)CCN(C(=O)C#CC(C)(C)N(C)C)CC3)C(=O)N3CCCC(N3)C(=O)OCC(C)(C)C2)C1
inactive: viability, T/C [7] 106% | viability, T/C [8] 103% | viability, T/C [9] 105% | viability, T/C [10] 79.2% | viability, T/C (second compound 0.000949 µM, first compound 3.16 µM) 56.9% | viability, T/C (second compound 0.000949 µM, first compound 10 µM) 56.3% | viability, T/C [11] 107% | viability, T/C [12] 100% | viability, T/C [13] 103% | viability, T/C [14] 65.6% | viability, T/C (second compound 0.003 µM, first compound 3.16 µM) 59.6% | viability, T/C (second compound 0.003 µM, first compound 10 µM) 51.9% | viability, T/C [15] 104% | viability, T/C [16] 108% | viability, T/C [17] 91.2% | viability, T/C [18] 83.1% | viability, T/C (second compound 0.00949 µM, first compound 3.16 µM) 61.2% | viability, T/C (second compound 0.00949 µM, first compound 10 µM) 55% | viability, T/C [19] 103% | viability, T/C [20] 110% | viability, T/C [21] 93.7% | viability, T/C [22] 79.2% | viability, T/C (second compound 0.03 µM, first compound 3.16 µM) 72.4% | viability, T/C (second compound 0.03 µM, first compound 10 µM) 53.3% | viability, T/C [23] 96.6% | viability, T/C [24] 101% | viability, T/C [25] 93.4% | viability, T/C [26] 78.4% | viability, T/C (second compound 0.0949 µM, first compound 3.16 µM) 61.1% | viability, T/C (second compound 0.0949 µM, first compound 10 µM) 49.4% | viability, T/C [27] 89.3% | viability, T/C [28] 95% | viability, T/C [29] 96.4% | viability, T/C [30] 84% | viability, T/C (second compound 0.3 µM, first compound 3.16 µM) 69.8% | viability, T/C (second compound 0.3 µM, first compound 10 µM) 52.5%
9850 nM: IC50 [5]
> 10000 nM: IC50 [1] | IC50 [2] | IC50 [3] | IC50 [4] | IC50 [6]

CCn1c(-c2cc(N3CCN(C)CC3)cnc2C(C)OC)c2c3cc(ccc31)-c1csc(n1)CC(NC(=O)C1CC1C)C(=O)N1CCCC(N1)C(=O)OCC(C)(C)C2 (stereo not given)
4.66 nM [middle of 8 runs]: IC50 (compound alone, run of 07/09/2024)
inactive: viability, T/C (compound 0.000949 µM) 84.7% [middle of 8 runs] | viability, T/C (compound 0.003 µM) 60.1% [middle of 8 runs] | viability, T/C (compound 0.00949 µM) 35.1% [middle of 8 runs] | viability, T/C (compound 0.03 µM) 20.7% [middle of 8 runs] | viability, T/C (compound 0.0949 µM) 16.4% [middle of 8 runs] | viability, T/C (compound 0.3 µM) 14.7% [middle of 7 runs]
